What was measured:
[1] = tested on: Cryptosporidium parasites; experiment: Lapaquistat/Lovastatin combination in Cryptosporidium-infected HCT-8 cells (infection ratio, Opera Phenix); assay type: cell-based; details: HCT-8, 48 hours of infection, infection ratio = number of parasites/number of host cells, drug alone, read-out: IC50 (ability to limit Cryptosporidium growth)
Method: Intestinal epithelial cells (HCT-8) were infected with Cryptosporidium parasites and treated with increasing concentrations of Lapaquistat acetate or Lovastatin, either alone or in combination. After 48 hours of infection, cells were then fixed and stained with a lectin that specifically marks parasites and a Hoechst dye that specifically labels DNA. Cells and parasites were then visualized with an Opera Phenix imaging microscope and infection ratio was calculated as number of parasites/number of host cells.

[2] = tested on: Cryptosporidium parvum; experiment: In vitro IC50 curves in Cryptosporidium-infected HCT-8 intestinal epithelial cell monolayers (imaging of total and female parasites); assay type: cell-based; details: infected intestinal epithelial cells; development measured by % female parasites in total parasites; figure legends
Method: HCT-cells (ATCC; CCL-244) were seeded in a 96-well plate at a density of 30,000 cells/well in complete media (RPMI with 10% FCS) and allowed to grow for 48 hours. Cryptosporidium parvum oocysts (Bunchgrass Farms; Dreary Idaho, USA) were prepared for infection by bleach treating (1% sodium hypochlorite) on ice for 5 minutes to remove bacterial contaminants, followed by a wash step and incubation in 0.75% sodium taurocholate for 10 minutes at 37° C. to trigger excystation. Oocysts were resuspended in infection media (RPMI with 1% FCS) and added to cells in 100 uL media (20,000 oocysts/well). A 10 mM solution of lapaquistat acetate (MedChem Express; Cat. No. HY-16274-1 mg) was created using DMSO as the solvent. From this stock, a half-logarithmic (3.16-fold) dilution series was created in infection media, at 2× the intended final concentration. 3 hours post-infection, 100 uL of each drug dilution was added to the wells. Each drug concentration comprised 6 technical replicates. […] The plate was then imaged using a Cytation cell imaging multimode reader (BioTek) to count host nuclei, total number of parasites, and the number of female parasites among them. […]

[3] = tested on: Cryptosporidium; details: malnourished and immunocompromised patients; cited from earlier work

For `CC[C@H](C)C(=O)O[C@H]1C[C@@H](C)C=C2C=C[C@H](C)[C@H](CC[C@@H]3C[C@@H](O)CC(=O)O3)[C@H]21` [Lovastatin], the IC50 [1] was 4.1 µM.
With `F/C(COc1ccc2c(c1)[nH]c1ccccc12)=C1/CN2CCC1CC2` [YM-53601] the “efficacy against parasite growth and parasite development” value [2] was “show efficacy”.
In the case of `CC(=O)Oc1ccccc1C(=O)Nc1ncc([N+](=O)[O-])s1` [nitazoxanide], the efficacy in patients [3] is given as “limited efficacy”.

— patent publication US20260124215A1, “METHODS OF TREATMENT OF INTESTINAL INFECTIONS” (THE FRANCIS CRICK INSTITUTE LIMITED, priority 2022, published 2026)
